Target: T1, Dihydrofolate reductase (Bacillus anthracis, UniProt Q81R22)
T1 sequence (Q81R22 whole entry): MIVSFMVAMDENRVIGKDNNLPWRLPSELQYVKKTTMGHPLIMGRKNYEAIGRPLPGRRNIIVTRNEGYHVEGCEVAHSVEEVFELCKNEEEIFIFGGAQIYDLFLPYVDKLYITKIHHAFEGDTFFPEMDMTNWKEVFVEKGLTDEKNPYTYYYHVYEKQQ

With `COc1cc(C(C)(C)C#Cc2c(C)nc(N)nc2N)cc(OC)c1OC` the IC50 was 12.7 µM and the Ki was 4.28 µM.

`CCc1nc(N)nc(N)c1C#CCc1cc(OC)ccc1-c1ccccc1` gave an IC50 of 7.7 µM and a Ki of 2.59 µM.

— ChEMBL document CHEMBL1268925 (J Med Chem, 2010)
